Test results published in paper PMC4594013 (Frontiers in Pharmacology, 2015).
Entries after “also recorded” stand apart in the source; their conditions may differ. Structures can show the parent of a compound that is named as a salt.

Key:
OAT2-tv1 [1] = biological target: T1, OAT2-tv1 (Homo sapiens, UniProt Q9Y694); assay: Cellular uptake of radiolabeled compounds by CHO, HEK or MDCK cells stably expressing OAT2-tv1
T1 sequence (Q9Y694 1-546 isoform Q9Y694-2): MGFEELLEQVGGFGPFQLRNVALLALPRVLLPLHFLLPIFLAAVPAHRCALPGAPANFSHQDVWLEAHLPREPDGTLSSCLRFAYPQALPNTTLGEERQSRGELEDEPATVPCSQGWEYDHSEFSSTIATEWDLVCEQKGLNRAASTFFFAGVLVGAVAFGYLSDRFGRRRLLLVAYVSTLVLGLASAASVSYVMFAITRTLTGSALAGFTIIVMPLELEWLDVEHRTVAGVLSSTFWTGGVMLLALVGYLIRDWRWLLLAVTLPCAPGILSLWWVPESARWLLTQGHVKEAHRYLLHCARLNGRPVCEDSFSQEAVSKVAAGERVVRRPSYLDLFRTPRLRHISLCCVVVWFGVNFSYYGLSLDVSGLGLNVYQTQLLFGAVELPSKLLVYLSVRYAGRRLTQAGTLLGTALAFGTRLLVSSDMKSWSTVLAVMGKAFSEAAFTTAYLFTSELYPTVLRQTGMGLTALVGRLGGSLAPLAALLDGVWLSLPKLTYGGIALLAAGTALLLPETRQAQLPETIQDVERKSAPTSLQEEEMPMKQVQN
Experimental: (§1) All experiments examining cellular radiolabeled compound uptake were conducted using cells grown to confluence in 24-well flat bottom plates. The transport solution consisted of WB (room temperature) containing radiolabeled compound and the uptake period for all experiments was at an initial rate time point of 5 min. [^3H]Penciclovir served as the probe OAT2 substrate. We also examined the uptake of [^3H]para-aminohippurate, [^3H]estrone-3-sulfate, [^14C]glutarate, [^14C]succinate, [^3H]paclitaxel, and [^3H]dehydroepiandrosterone sulfate by OAT2 since published studies indicate that they are substrates of the transport protein ([Sun et al., 2001]; [Kobayashi et al., 2005a]). […] For all cellular uptake experiments, the medium was aspirated and the cells were rinsed once with WB (0.3 ml). Following the uptake period, cells were washed three times with ice-cold WB (0.5 ml each wash). After aspirating the final wash the cells were lysed in 0.5 N NaOH/1% SDS (0.4 ml) for ∼30 min on an orbital shaker. 1 N HCl (0.2 ml) was then added to neutralize the NaOH, and the cell lysates (0.5 ml) were transferred to scintillation vials containing liquid scintillation cocktail (CytoScint ES, MP Biomedicals). Cellular radioactivity content was determined with a Beckman LS6500 liquid scintillation counter. Protein content was determined using the bicinchoninic acid method. See the Figure and Table Legends for additional details describing the experimental conditions used.
FIGURE 2 Cellular accumulation of [^3H]penciclovir (A), [^3H]para-aminohippurate (B), [^3H]estrone-3-sulfate (C), or [^14C]glutarate (D) by parental CHO, HEK, or MDCK cells, or CHO, HEK, or MDCK cells stably expressing either OAT2-tv1 or OAT2-tv2. The concentration of [^3H]penciclovir in the transport solution was 0.1 μM for CHO and MDCK cell experiments, and 0.5 μM for HEK cell experiments. The concentrations of [^3H]para-aminohippurate, [^3H]estrone-3-sulfate and [^14C]glutarate were 8 nM, 10 nM, and 18 μM, respectively. Uptake was conducted for 5 min at room temperature.
FIGURE 4 Cellular accumulation of [^14C]succinate (18.5 μM) by CHO parental cells, CHO-OAT2-tv1 cells or CHO cells stably expressing the Na-dicarboxylate cotransporter 3 (NaDC3). Uptake was conducted for 5 min. Values are the mean ± standard error of the mean of four experiments for CHO parental and CHO-OAT2-tv1 cells. A single uptake experiment was performed with CHO-NaDC3 cells.

[2] = tested on: OAT2 (sequence not given); conditions: variant unclear; ref Sun et al., 2001; cited from earlier work
CHO parental cells = assay: Cellular accumulation of radiolabeled compounds in CHO parental cells; type: cell-based, Chinese hamster; conditions: [3H]dehydroepiandrosterone sulfate 12 nM, [3H]paclitaxel 22 nM, n = 3
OAT2-tv1 [3] = biological target: T1, OAT2-tv1; assay: Inhibition of [3H]penciclovir uptake into CHO-OAT2-tv1 cells; type: cell-based; conditions: CHO-OAT2-tv1 cells; test compound 1 mM; [3H]penciclovir ∼30 nM; 5 min
Experimental: as §1
The concentration of each Kreb’s cycle intermediate was 1 mM. Uptake was conducted for 5 min.

OAT2-tv1 [4] = biological target: T1, OAT2-tv1; design: The open reading frame of the human ortholog of OAT2 transcript variant 1 (OAT2-tv1) containing 546 amino acids was amplified from human kidney cDNA; expressed in transfected cells; host or cells: CHO Flp-In (A1); CHO, HEK and MDCK Flp-In (A2); conditions: ref Babelova et al., 2015; cited from earlier work
OAT2-tv3 = tested on: OAT2-tv3; design: method as in Sato et al., 2010; conditions: OAT2-tv3 in HEK cells pre-loaded with succinate (100 mM); ref Sato et al., 2010; cited from earlier work
[5] = biological target: Na-dicarboxylate cotransporter 3 (NaDC3) (Homo sapiens, UniProt Q8WWT9); conditions: CHO-NaDC3 cells; [14C]succinate 18.5 μM; 5 min; single experiment (n = 1)
Experimental: as §1, with “See the Figure and Table Legends for additional details describing the experimental conditions used.” left out

OAT2-tv2 = biological target: T2, OAT2-tv2 (Homo sapiens, UniProt Q9Y694); design: method as in Kobayashi et al., 2005a; conditions: OAT2-tv2 in Xenopus oocytes pre-loaded with 5 mM compound; ref Kobayashi et al., 2005a; cited from earlier work
T2 sequence (Q9Y694 1-548): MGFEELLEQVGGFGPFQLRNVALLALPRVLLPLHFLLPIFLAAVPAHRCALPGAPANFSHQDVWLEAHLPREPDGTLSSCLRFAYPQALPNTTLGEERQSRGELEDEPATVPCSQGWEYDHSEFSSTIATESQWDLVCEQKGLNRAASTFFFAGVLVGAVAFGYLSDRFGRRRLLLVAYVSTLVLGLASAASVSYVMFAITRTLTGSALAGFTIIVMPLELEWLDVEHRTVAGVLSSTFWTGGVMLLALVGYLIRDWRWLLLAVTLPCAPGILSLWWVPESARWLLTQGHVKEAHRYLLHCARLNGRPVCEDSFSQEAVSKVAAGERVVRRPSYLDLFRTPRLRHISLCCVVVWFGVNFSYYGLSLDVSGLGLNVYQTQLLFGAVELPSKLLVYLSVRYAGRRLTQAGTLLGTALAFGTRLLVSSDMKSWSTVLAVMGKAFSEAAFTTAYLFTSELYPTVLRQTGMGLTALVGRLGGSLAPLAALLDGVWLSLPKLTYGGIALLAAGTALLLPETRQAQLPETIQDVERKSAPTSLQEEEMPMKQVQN

Na-dicarboxylate cotransporter 3 (NaDC3), sequence (Q8WWT9 whole entry, species assumed): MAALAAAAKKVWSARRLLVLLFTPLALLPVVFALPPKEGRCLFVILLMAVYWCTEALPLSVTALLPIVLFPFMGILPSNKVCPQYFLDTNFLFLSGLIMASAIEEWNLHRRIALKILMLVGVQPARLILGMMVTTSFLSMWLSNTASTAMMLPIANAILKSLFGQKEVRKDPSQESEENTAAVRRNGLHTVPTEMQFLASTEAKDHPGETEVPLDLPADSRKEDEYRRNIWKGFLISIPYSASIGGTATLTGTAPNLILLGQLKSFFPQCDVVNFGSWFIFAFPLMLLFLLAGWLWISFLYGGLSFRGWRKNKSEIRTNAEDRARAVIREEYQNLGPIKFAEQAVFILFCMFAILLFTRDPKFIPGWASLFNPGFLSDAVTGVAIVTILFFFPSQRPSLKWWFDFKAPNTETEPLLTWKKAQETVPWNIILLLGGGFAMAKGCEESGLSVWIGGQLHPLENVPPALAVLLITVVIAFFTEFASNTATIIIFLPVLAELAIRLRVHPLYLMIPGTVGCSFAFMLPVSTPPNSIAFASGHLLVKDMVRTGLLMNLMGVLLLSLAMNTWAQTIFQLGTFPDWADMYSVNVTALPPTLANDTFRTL

C[C@]12CC[C@H](OS(=O)(=O)O)CC1=CC[C@@H]1[C@@H]2CC[C@]2(C)C(=O)CC[C@@H]12 [dehydroepiandrosterone sulfate]
cellular accumulation (OAT2-tv1 [1]; CHO-OAT2-tv1 cells, [3H]dehydroepiandrosterone sulfate 12 nM, [3H]paclitaxel 22 nM, n = 3): 11.0 ± 0.54 fmoles ⋅ mg protein^-1 ⋅ min^-1 | mediated transport by OAT2-tv1 (OAT2-tv1 [1]; expressed in CHO cells): unable to show mediated transport | transport by OAT2 [2]: did not observe transport | cellular accumulation (CHO parental cells): 10.3 ± 1.1 fmoles ⋅ mg protein^-1 ⋅ min^-1

O=C(O)/C=C(/CC(=O)O)C(=O)O [cis-aconitate]
cis-inhibition of penciclovir uptake (OAT2-tv1 [3]): none of the Kreb’s cycle intermediates tested, including succinate and fumarate, cis-inhibited penciclovir uptake | cis-inhibition of OAT2-tv1-mediated cGMP transport (OAT2-tv1 [4]): did not observe cis-inhibition

O=C(O)CC(O)(CC(=O)O)C(=O)O [citrate]
cis-inhibition of penciclovir uptake (OAT2-tv1 [3]): none of the Kreb’s cycle intermediates tested, including succinate and fumarate, cis-inhibited penciclovir uptake | cis-inhibition of OAT2-tv1-mediated cGMP transport (OAT2-tv1 [4]): did not observe cis-inhibition

O=C(O)CCC(=O)O [succinate]
stimulation of urate uptake by pre-loading (OAT2-tv3): failed to observe stimulation | cis-inhibition of penciclovir uptake (OAT2-tv1 [3]): none of the Kreb’s cycle intermediates tested, including succinate and fumarate, cis-inhibited penciclovir uptake | uptake of [14C]succinate, fold higher than control [5]: ~30 fold | uptake of [14C]succinate compared to parental CHO cells (OAT2-tv1 [1]; CHO-OAT2-tv1 cells, [14C]succinate 18.5 μM, 5 min): not different than uptake into the parental CHO cells; also recorded: no significant difference; also recorded: not transported | stimulation of estrone-3-sulfate uptake by pre-loading (OAT2-tv2): 2.1 fold
